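48-hour exposure; five concentrations; linearly interpolated endpoints. GI50 marks 50% less growth. TGI denotes the concentration required for complete inhibition of growth.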
Key:
Assay in all cases: NCI anticancer screen, dose series, 48 h
OVCAR-8 ovarian = tested on: OVCAR-8 ovarian
SNB-19 CNS = tested on: SNB-19 CNS
LOX IMVI melanoma = tested on: LOX IMVI melanoma
HCC-2998 colon = tested on: HCC-2998 colon
BT-549 breast = tested on: BT-549 breast
OVCAR-5 ovarian = tested on: OVCAR-5 ovarian
IGROV1 ovarian = tested on: IGROV1 ovarian
SW-620 colon = tested on: SW-620 colon
SK-MEL-2 melanoma = tested on: SK-MEL-2 melanoma
SR leukemia = tested on: SR leukemia
OVCAR-3 ovarian = tested on: OVCAR-3 ovarian
MDA-MB-435 = tested on: MDA-MB-435
SK-MEL-28 melanoma = tested on: SK-MEL-28 melanoma
OVCAR-4 ovarian = tested on: OVCAR-4 ovarian
HCT-15 colon = tested on: HCT-15 colon
NCI-H23 lung = tested on: NCI-H23 lung
NCI-H460 lung = tested on: NCI-H460 lung
UACC-62 melanoma = tested on: UACC-62 melanoma
HCT-116 colon = tested on: HCT-116 colon
CAKI-1 renal = tested on: CAKI-1 renal
HT29 colon = tested on: HT29 colon
MCF7 breast = tested on: MCF7 breast
MDA-MB-231 breast = tested on: MDA-MB-231 breast
UACC-257 melanoma = tested on: UACC-257 melanoma
SNB-75 CNS = tested on: SNB-75 CNS
NCI/ADR-RES ovarian = tested on: NCI/ADR-RES ovarian
KM12 colon = tested on: KM12 colon
T-47D breast = tested on: T-47D breast
SF-295 CNS = tested on: SF-295 CNS
A498 renal = tested on: A498 renal
K-562 leukemia = tested on: K-562 leukemia
EKVX NSCLC = tested on: EKVX NSCLC
SF-539 CNS = tested on: SF-539 CNS
UO-31 renal = tested on: UO-31 renal
MALME-3M melanoma = tested on: MALME-3M melanoma
HS 578T breast = tested on: HS 578T breast
TK-10 renal = tested on: TK-10 renal
SK-OV-3 ovarian = tested on: SK-OV-3 ovarian
RXF 393 renal = tested on: RXF 393 renal
COLO 205 colon = tested on: COLO 205 colon
MOLT-4 leukemia = tested on: MOLT-4 leukemia
U251 CNS = tested on: U251 CNS
ACHN renal = tested on: ACHN renal
786-0 renal = tested on: 786-0 renal
A549 NSCLC = tested on: A549 NSCLC
NCI-H226 lung = tested on: NCI-H226 lung
HOP-92 NSCLC = tested on: HOP-92 NSCLC
HOP-62 NSCLC = tested on: HOP-62 NSCLC
SF-268 CNS = tested on: SF-268 CNS
NCI-H522 lung = tested on: NCI-H522 lung
SN12C renal = tested on: SN12C renal
DU-145 prostate = tested on: DU-145 prostate
SK-MEL-5 melanoma = tested on: SK-MEL-5 melanoma
RPMI-8226 leukemia = tested on: RPMI-8226 leukemia
CCRF-CEM leukemia = tested on: CCRF-CEM leukemia

O=C(N/N=C/c1ccccc1O)c1ccccc1O
GI50 (OVCAR-8 ovarian): 618 nM
TGI (OVCAR-8 ovarian): > 100000 nM
GI50 (SNB-19 CNS): 2690 nM
TGI (SNB-19 CNS): > 100000 nM
GI50 (LOX IMVI melanoma): 286 nM
TGI (LOX IMVI melanoma): > 100000 nM
GI50 (HCC-2998 colon): 1910 nM
TGI (HCC-2998 colon): > 100000 nM
GI50 (BT-549 breast): 4440 nM
TGI (BT-549 breast): > 100000 nM
GI50 (OVCAR-5 ovarian): 4960 nM
TGI (OVCAR-5 ovarian): > 100000 nM
GI50 (IGROV1 ovarian): 794 nM
TGI (IGROV1 ovarian): > 100000 nM
GI50 (SW-620 colon): 877 nM
TGI (SW-620 colon): > 100000 nM
GI50 (SK-MEL-2 melanoma): 1030 nM
TGI (SK-MEL-2 melanoma): > 100000 nM
GI50 (SR leukemia): 1740 nM
TGI (SR leukemia): > 100000 nM
GI50 (OVCAR-3 ovarian): 437 nM
TGI (OVCAR-3 ovarian): > 100000 nM
GI50 (MDA-MB-435): 3880 nM
TGI (MDA-MB-435): > 100000 nM
GI50 (SK-MEL-28 melanoma): 1920 nM
TGI (SK-MEL-28 melanoma): > 100000 nM
GI50 (OVCAR-4 ovarian): 297 nM
TGI (OVCAR-4 ovarian): > 100000 nM
GI50 (HCT-15 colon): 423 nM
TGI (HCT-15 colon): > 100000 nM
GI50 (NCI-H23 lung): 2900 nM
TGI (NCI-H23 lung): > 100000 nM
GI50 (NCI-H460 lung): 514 nM
TGI (NCI-H460 lung): > 100000 nM
GI50 (UACC-62 melanoma): 733 nM
TGI (UACC-62 melanoma): > 100000 nM
GI50 (HCT-116 colon): 325 nM
TGI (HCT-116 colon): > 100000 nM
GI50 (CAKI-1 renal): 488 nM
TGI (CAKI-1 renal): > 100000 nM
GI50 (HT29 colon): 11600 nM
TGI (HT29 colon): > 100000 nM
GI50 (MCF7 breast): 337 nM
TGI (MCF7 breast): > 100000 nM
GI50 (MDA-MB-231 breast): 676 nM
TGI (MDA-MB-231 breast): > 100000 nM
GI50 (UACC-257 melanoma): 434 nM
TGI (UACC-257 melanoma): > 100000 nM
GI50 (SNB-75 CNS): 390 nM
TGI (SNB-75 CNS): > 100000 nM
GI50 (NCI/ADR-RES ovarian): 451 nM
TGI (NCI/ADR-RES ovarian): > 100000 nM
GI50 (KM12 colon): 766 nM
TGI (KM12 colon): > 100000 nM
GI50 (T-47D breast): 418 nM
TGI (T-47D breast): > 100000 nM
GI50 (SF-295 CNS): 1270 nM
TGI (SF-295 CNS): > 100000 nM
GI50 (A498 renal): 2570 nM
TGI (A498 renal): > 100000 nM
GI50 (K-562 leukemia): 2620 nM
TGI (K-562 leukemia): > 100000 nM
GI50 (EKVX NSCLC): 2230 nM
TGI (EKVX NSCLC): > 100000 nM
GI50 (SF-539 CNS): 1740 nM
TGI (SF-539 CNS): > 100000 nM
GI50 (UO-31 renal): 3120 nM
TGI (UO-31 renal): > 100000 nM
GI50 (MALME-3M melanoma): 12600 nM
TGI (MALME-3M melanoma): > 100000 nM
GI50 (HS 578T breast): 8510 nM
TGI (HS 578T breast): > 100000 nM
GI50 (TK-10 renal): 518 nM
TGI (TK-10 renal): > 100000 nM
GI50 (SK-OV-3 ovarian): 1750 nM
TGI (SK-OV-3 ovarian): > 100000 nM
GI50 (RXF 393 renal): 1490 nM
TGI (RXF 393 renal): > 100000 nM
GI50 (COLO 205 colon): 3530 nM
TGI (COLO 205 colon): > 100000 nM
GI50 (MOLT-4 leukemia): 637 nM
TGI (MOLT-4 leukemia): > 100000 nM
GI50 (U251 CNS): 926 nM
TGI (U251 CNS): > 100000 nM
GI50 (ACHN renal): 680 nM
TGI (ACHN renal): > 100000 nM
GI50 (786-0 renal): 1140 nM
TGI (786-0 renal): > 100000 nM
GI50 (A549 NSCLC): 2080 nM
TGI (A549 NSCLC): > 100000 nM
GI50 (NCI-H226 lung): 2430 nM
TGI (NCI-H226 lung): > 100000 nM
GI50 (HOP-92 NSCLC): 804 nM
TGI (HOP-92 NSCLC): > 100000 nM
GI50 (HOP-62 NSCLC): 568 nM
TGI (HOP-62 NSCLC): > 100000 nM
GI50 (SF-268 CNS): 802 nM
TGI (SF-268 CNS): > 100000 nM
GI50 (NCI-H522 lung): 303 nM
TGI (NCI-H522 lung): 17900 nM
GI50 (SN12C renal): 1440 nM
TGI (SN12C renal): > 100000 nM
GI50 (DU-145 prostate): 847 nM
TGI (DU-145 prostate): > 100000 nM
GI50 (SK-MEL-5 melanoma): 1080 nM
TGI (SK-MEL-5 melanoma): 12800 nM
GI50 (RPMI-8226 leukemia): 1700 nM
TGI (RPMI-8226 leukemia): > 100000 nM
GI50 (CCRF-CEM leukemia): 499 nM
TGI (CCRF-CEM leukemia): > 100000 nM

— PubChem BioAssay (NCI)
